In patent US20050004007A1, “Promotion of adoptosis in cancer cells by co-administration of cyclin dependent kinase inhibitiors and cellular differentiation agents” (priority 2000, published 2005):

Tests used:
[1] = system: HL-60 human promyelocytic leukemia cells; test: morphological assessment of apoptosis; type: cell-based; settings: 3, 5, or 10 μM ATRA, 80 nM FP
Text: (§1) Cell culture. The myelomonocytic leukemia cell line U937 was derived from a patient with histiocytic lymphoma and was obtained from American Type Culture Collection. The HL-60 cell line was derived from a patient with acute promyelocytic leukemia as previously described [Grant et al. 1992]. U937 and HL-60 cells were maintained in logarithmic growth phase by culturing in suspension in phenol red-free RPMI-1640 (Life Technologies, Inc., Grand Island, N.Y.) and 10% (v/v) fetal calf serum (Hyclone, Logan, Utah), in a humidified atmosphere (95% air/5% CO2) at 37° C. To obtain antisense-expressing cell lines, U937 cells were transfected by electroporation with a pREP4 vector (Invitrogen; Carlsbad, Calif.) or the pREP4 vector containing the p21^WAF1/CIP1 coding region in an antisense orientation as previously described [Wang et al. 1999]. […]
(§2) Morphological assessment of apoptosis. U937 cells were evaluated for apoptosis by morphological assessment of Wright and Giemsa-stained cytospin preparations. At designated times, cells were transferred to slides by cytocentrifugation, fixed, stained, and evaluated under light microscopy for treatment-induced apoptosis. […] Five or more randomly selected fields, encompassing a total≧500 cells/slide, were evaluated to determine the percentage of apoptotic cells for each treatment condition.

p27KIP1 = test: Western analysis of p27KIP1 expression in U937 cells; type: cell-based, human; settings: 10 nM PMA, FP 50-100 nM, 24 h
Protocol: Western analysis. Equal quantities of protein (15 μg/condition for MAPK, 40 μg/condition for cytochrome c, or 25 μg/condition) were separated by SDS-PAGE [underphosporylated pRB (7.5%), poly(ADP-ribose)polymerase or PARP (8.0%), p44/p42 MAPK (10%), p21, p27, procaspase 3 (12%), and cytochrome c (15%)] and electroblotted onto nitrocellulose. Western analysis of p44/p42 MAPK protein was performed according to the manufacturer's instructions (New England Biolabs); otherwise, studies were performed as previously described [Wang et al, 1998]. Briefly, U937 cells (5×10^6) were pelleted by centrifugation, resuspended in 50 μl PBS, lysed by the addition of 2× Laemmli buffer and boiled for 5 min. Proteins were quantified with Coomassie protein assay reagent. Blots were blocked in PBS-T/5% milk, washed twice with PBS-T, and incubated overnight at 4° C. with the appropriate primary antibody. The blots were washed with PBS-T and incubated with a horseradish-peroxidase conjugated secondary antibody diluted appropriately in PBS-T/5% mill. […]
Alternatively, whole cell-pellets were washed twice in PBS, resuspended in PBS, and lysed by the addition of I volume of loading buffer. Lysates were boiled for 10 min, centrifuged at 12,800 g for 5 min and quantified using Coomassie protein assay reagent (Pierce, Rockfold, Ill.). […]

ERK1/2 = test: Western analysis of phosphorylated p44/p42 MAPK in U937 cells; type: cell-based, human; settings: 10 nM PMA, 100 nM FP, 30 min-6 h
Protocol: (§3) Western analysis. Equal quantities of protein (15 μg/condition for MAPK, 40 μg/condition for cytochrome c, or 25 μg/condition) were separated by SDS-PAGE [underphosporylated pRB (7.5%), poly(ADP-ribose)polymerase or PARP (8.0%), p44/p42 MAPK (10%), p21, p27, procaspase 3 (12%), and cytochrome c (15%)] and electroblotted onto nitrocellulose. Western analysis of p44/p42 MAPK protein was performed according to the manufacturer's instructions (New England Biolabs); otherwise, studies were performed as previously described [Wang et al, 1998]. Briefly, U937 cells (5×10^6) were pelleted by centrifugation, resuspended in 50 μl PBS, lysed by the addition of 2× Laemmli buffer and boiled for 5 min. Proteins were quantified with Coomassie protein assay reagent. Blots were blocked in PBS-T/5% milk, washed twice with PBS-T, and incubated overnight at 4° C. with the appropriate primary antibody. The blots were washed with PBS-T and incubated with a horseradish-peroxidase conjugated secondary antibody diluted appropriately in PBS-T/5% mill. Following incubation, blots were developed by enhanced chemiluminescence exposure to Kodak X-OMAT film (Eastman Kodak Co., Rochester, N.Y.) and reprobed with antibodies directed against actin to control for equal loading of protein.

[2] = system: p21WAF1/CIP1 full-length promoter; test: p21WAF1/CIP1 luciferase reporter assay; type: cell-based, human; settings: 10 nM PMA, 100 nM FP, 3 and 6 h
Protocol: (§4) Differentiation studies. Expression of the monocytic differentiation marker, CD11b, was monitored by direct immunofluorescence staining and flow cytometric analysis as previously described [Freemerman et al. 1997]. Following drug treatment, suspension and adherent cells were enumerated by a Coulter Counter and 2×10^6 cells were pelleted by centrifugation. The supernatant was aspirated and the cells were resuspended in 300 μl of ice-cold PBS. Two 100 μl aliquots from each sample were then combined with either phycoerythrin-1 (10 μl) or the IgG control. Samples were incubated for 20 min at 4° C. and diluted in PBS (1 ml). Sample data were collected using a Becton Dickinson FACScan flow cytometer and analyzed with Verity Winlist Software (Verity; Topsham, Me.). […] U937 cells were transfected with a full-length p21^WAF1/CIP1 promoter (base pairs 1-2326) as described by Chinery et al. [Chinery et al. 1997] utilizing electroporation (Eppendorf Multiporator, 620V, 60 μs) in hypoosmolar buffer. […] Lysates (20 μL) were mixed with luciferase assay reagent (100 μL) and monitored for 20 seconds in a luminometer (Monolight 2010). […] The reaction was terminated by addition of NaCO3 and absorbance was measured at 405 nm in a Vmax plate reader (Molecular Devices). Activity was determined by comparison to a standard curve. […]

U937 cells [3] = test: CD11b surface differentiation marker expression (flow cytometry); type: cell-based, human; settings: 24 h; 10 nM PMA alone or with 50 nM FP
Protocol: Differentiation studies. Expression of the monocytic differentiation marker, CD11b, was monitored by direct immunofluorescence staining and flow cytometric analysis as previously described [Freemerman et al. 1997]. Following drug treatment, suspension and adherent cells were enumerated by a Coulter Counter and 2×10^6 cells were pelleted by centrifugation. The supernatant was aspirated and the cells were resuspended in 300 μl of ice-cold PBS. Two 100 μl aliquots from each sample were then combined with either phycoerythrin-1 (10 μl) or the IgG control. Samples were incubated for 20 min at 4° C. and diluted in PBS (1 ml). Sample data were collected using a Becton Dickinson FACScan flow cytometer and analyzed with Verity Winlist Software (Verity; Topsham, Me.). […] U937 cells were transfected with a full-length p21^WAF1/CIP1 promoter (base pairs 1-2326) as described by Chinery et al. [Chinery et al. 1997] utilizing electroporation (Eppendorf Multiporator, 620V, 60 μs) in hypoosmolar buffer. In each experiment, pSV-βgal (Promega), containing the β-galactosidase gene under the control of the constitutively active SV40 promoter and enhancer, was co-transfected with the luciferase reporter at a ratio of 1:5 (w/w) to normalize for transfection efficiency. The cells were incubated overnight in complete media and treated with 10 nM PMA, 100 nM FP, or 10 nM PMA/100 nM FP for 3 or 6 h. At indicated times, cells were washed in serum-free media, resuspended in 0.25M Tris-HCl pH 7.8, lysed by rapid freeze-thaw, centrifuged and the supernatant frozen at −70° C. Lysates (20 μL) were mixed with luciferase assay reagent (100 μL) and monitored for 20 seconds in a luminometer (Monolight 2010). For β-galactosidase activity, lysates (50 μL) were mixed in triplicate with an equal volume of […] assay buffer (2×) in a 96-well plate and incubated overnight. The reaction was terminated by addition of NaCO3 and absorbance was measured at 405 nm in a Vmax plate reader (Molecular Devices). Activity was determined by comparison to a standard curve. […]

pRb = test: Western analysis of underphosphorylated pRb in U937 cells; type: cell-based, human
Protocol: as §3
(§5) Alternatively, whole cell-pellets were washed twice in PBS, resuspended in PBS, and lysed by the addition of I volume of loading buffer. Lysates were boiled for 10 min, centrifuged at 12,800 g for 5 min and quantified using Coomassie protein assay reagent (Pierce, Rockfold, Ill.). 25 μg of total proteins per point were separated by SDS-PAGE and electro-blotted to nitrocellulose. The blots were blocked in 5% non-fat milk in PBS-T and probed for 1 h with the appropriate dilution of primary antibody. Blots were washed 3×10 min in PBS-T and then incubated with a 1:2000 dilution of peroxidase-conjugated secondary antibody for 1 h at room temperature. Blots were again washed 3×10 min in PBS-T and then developed by enhanced chemiluminesence. Where indicated, blots were stripped and re-probed with antibodies directed against actin.
(§6) Primary antibodies for both p21^WAF1/CIP1 and p27^KIP1 (Transduction Laboratories, Lexington, Ky.) were used in a 1:1000 dilution; PARP (1:1000; Oncogene Research Products, Cambridge, Mass.); pro-caspase 3 (1:1000; Transduction Laboratories); cytochrome c (1:2000; Pharmingen); bcl-2 (1:2000; DAKO, Denmark); bax (1:1000; Santa Cruz Biotechnology, Inc., Santa Cruz, Calif.); bid (1:1000; Cell Signaling, Beverly, Mass.); XIAP (1:1000; Cell Signaling); Mcl-1 (1:1000; Pharmingen); bak (1:1000; Calbiochem); c-Myc (1:1000; Pharmingen, San Diego, Calif.); actin (1:2000; Sigma Chemicals, St. Louis, Mo.); cyclins-D1, -A and -E (1:1000; Pharmingen); pRb, underP-pRb, pRb-CDK2 and pRb-CDK4 (all 1:1000; Pharmingen); Ac-H3 and Ac-H4 (both 1:1000; Upstate Biotechnology, Lake Placid, N.Y.); E2F-1 (Upstate Biotechnology). Secondary antibodies conjugated to horseradish peroxidase were obtained from Kirkegaard and Perry Laboratories, Inc. (Gaithersburg, Md.). Coomassie protein assay reagent was purchased from Pierce (Rockford, Ill.), and an enhanced chemiluminescence kit was obtained from New England Nuclear (Boston, Mass.). The pan-caspase inhibitor BOC-D-fmk and the caspase 8 inhibitor Z-IETD-fmk were purchased from Enzyme System Products (Livermore, Calif.) All other chemicals or reagents were purchased from Sigma.

U937 cells [4] = test: clonogenic survival assay; type: cell-based, human; settings: 24-h exposure; 10 nM PMA alone or 10 nM PMA/100 nM FP
Protocol: Clonogenic survival assays. Clonogenic survival assays assessed the effects of 10 nM PMA, FP (50 or 100 nM) or PMA/FP co-treatments on leukemic cell self-renewal capacity. Cell densities were determined after 24-h drug treatment using a Coulter Counter (Coulter Electronics, Hialeah, Fla.). Cells were pelleted by centrifugation and resuspended in fresh media to achieve a final cell density of 3×10^5/ml. A total of 4500 cells were plated in soft agar cloning medium for each condition as previously described [Powell et al. 1995]. Colonies, defined as groups of≧50 cells, were scored after 12 days of incubation. Clonogenic survival in drug-treated samples was expressed as a percentage relative to untreated controls.

p21WAF1/CIP1 = test: Western analysis of p21WAF1/CIP1 expression in U937 cells; type: cell-based, human
Protocol: as §3, §5, §6

U937 cells [5] = test: plastic adherence (differentiation); type: cell-based, human; settings: 10 nM PMA alone or with FP 100 nM
Protocol: as §4

[6] = system: U937 myelomonocytic human leukemia cells; test: percent cell death; type: cell-based; settings: 1 μM SAHA, 100 nM FP, 24 hours after administration
[7] = system: HL-60 promyelocytic leukemia cells; test: percent cell death; type: cell-based, human; settings: SAHA 1 and 1.5 μM alone or with 100 or 150 nM FP
U937 cells [8] = test: cell cycle analysis (propidium iodide, flow cytometry); type: cell-based, human; settings: 24 h after administration of SAHA, FP or both
Protocol: Cell Cycle Analysis. Following drug treatment, cells were pelleted by centrifugation at 500 g×6 min, and resuspended in 70% ethanol. The cells were incubated on ice for at least 1 h and resuspended in 1 ml cell cycle buffer (0.38 mM Na-Citrate, 0.5 mg/ml RNase A, and 0.01 mg/ml propidium iodide) at a concentration of 10×10^5 cells/ml, stored in the dark at 4 C until analysis (24 h), using a Becton-Dickinson FACScan flow cytometer and Verity Winlist software (Verity Software, Topsham, Me.).

U937/Bcl-2 cells = test: morphological assessment of apoptosis in Bcl-2 overexpressing cells; type: cell-based, human; settings: ara-C 1.0 μM x 6 h
Text: as §1, §2

Which “% apoptosis” value [1] does the source give for CC1=C(/C=C/C(C)=C/C=C/C(C)=C/C(=O)O)C(C)(C)CCC1 [ATRA, all trans retinoic acid] here?
The value was “minimal effect”.

With CCCCCCCCCCCCCC(=O)O[C@@H]1[C@@H](C)[C@@]2(O)[C@@H](C=C(CO)C[C@]3(O)C(=O)C(C)=C[C@@H]23)[C@@H]2C(C)(C)[C@]12OC(C)=O [PMA, phorbol 12-myristate 13-acetate] as the compound, how does the p27KIP1 expression (p27KIP1) read?
Its p27KIP1 expression is “slight increase”.

And the “phosphorylation (activation) of ERK1/2” value (ERK1/2)?
Its value is “increase in phosphorylated ERK1/2”.

What about the p21WAF1/CIP1 reporter activity [2] of the same compound?
Its p21WAF1/CIP1 reporter activity is “markedly increased”.

What about the “percentage of cells displaying CD11b expression” value (U937 cells [3]) of the same compound?
Its value is 26%.

What about the “time of pRb dephosphorylation” value (pRb; 10 nM PMA alone) of the same compound?
Its value is 3 h.

What about the “full-length underphosphorylated pRb” value (pRb; 10 nM PMA, FP 50, 80 or 100 nM, 24 h) of the same compound?
The value was “significant increase”.

What about the “clonogenic survival, percentage relative to untreated controls” value (U937 cells [4]) of the same compound?
Its value is 15%.

What about the p21WAF1/CIP1 expression (p21WAF1/CIP1; 10 nM PMA, FP 50-100 nM, 24 h) of the same compound?
The p21WAF1/CIP1 expression was “significant increase”.

And the “time to induction of p21WAF1/CIP1 after drug addition” value (p21WAF1/CIP1; PMA 10 nM)?
Its value is ≤ 1 h.

What about the “percentage of cells with plastic adherence” value (U937 cells [5]) of the same compound?
The value was 80%.

O=C(CCCCCCC(=O)Nc1ccccc1)NO [SAHA, suberoylanilide hydroxamic acid] was tested. Which cell death [6] did it give?
Its cell death is “ineffective”.

What about the cell death [7] of the same compound?
Its cell death is “modest levels of cell death”.

And the cell cycle distribution (U937 cells [8])?
Its cell cycle distribution is “prominent increase in the percentage of cells arresting in G0/G1”.

For Nc1ccn([C@@H]2O[C@H](CO)[C@@H](O)[C@@H]2O)c(=O)n1 [ara-C, 1-β-D-arabinofuranosylcytosine], which “lethal effects in Bcl-2 overexpressing cells” value (U937/Bcl-2 cells) is on record?
The value was “significantly protected”.
